Reference: PubChem BioAssay (NCI)
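Grown in 96-well plates, cells were treated for 48 hours with each compound at five concentrations. Insufficient inhibition: endpoint recorded as highest concentration tested. GI50 is the concentration that inhibits growth by half. TGI is the concentration that stops growth completely.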

Key:
Assay in all cases: inhibition of tumour cell growth, NCI panel, 48 h
786-0 renal = system: 786-0 renal
A498 renal = system: A498 renal
A549 NSCLC = system: A549 NSCLC
ACHN renal = system: ACHN renal
BT-549 breast = system: BT-549 breast
CAKI-1 renal = system: CAKI-1 renal
CCRF-CEM leukemia = system: CCRF-CEM leukemia
COLO 205 colon = system: COLO 205 colon
DU-145 prostate = system: DU-145 prostate
EKVX NSCLC = system: EKVX NSCLC
HCC-2998 colon = system: HCC-2998 colon
HCT-116 colon = system: HCT-116 colon
HCT-15 colon = system: HCT-15 colon
HL-60(TB) leukemia = system: HL-60(TB) leukemia
HOP-62 NSCLC = system: HOP-62 NSCLC
HOP-92 NSCLC = system: HOP-92 NSCLC
HS 578T breast = system: HS 578T breast
HT29 colon = system: HT29 colon
IGROV1 ovarian = system: IGROV1 ovarian
K-562 leukemia = system: K-562 leukemia
KM12 colon = system: KM12 colon
LOX IMVI melanoma = system: LOX IMVI melanoma
M14 melanoma = system: M14 melanoma
MALME-3M melanoma = system: MALME-3M melanoma
MCF7 breast = system: MCF7 breast
MDA-MB-231 breast = system: MDA-MB-231 breast
MDA-MB-435 = system: MDA-MB-435
MOLT-4 leukemia = system: MOLT-4 leukemia
NCI-H226 lung = system: NCI-H226 lung
NCI-H23 lung = system: NCI-H23 lung
NCI-H460 lung = system: NCI-H460 lung
NCI-H522 lung = system: NCI-H522 lung
NCI/ADR-RES ovarian = system: NCI/ADR-RES ovarian
OVCAR-3 ovarian = system: OVCAR-3 ovarian
OVCAR-4 ovarian = system: OVCAR-4 ovarian
OVCAR-5 ovarian = system: OVCAR-5 ovarian
OVCAR-8 ovarian = system: OVCAR-8 ovarian
PC-3 prostate = system: PC-3 prostate
RPMI-8226 leukemia = system: RPMI-8226 leukemia
RXF 393 renal = system: RXF 393 renal
SF-268 CNS = system: SF-268 CNS
SF-295 CNS = system: SF-295 CNS
SF-539 CNS = system: SF-539 CNS
SK-MEL-2 melanoma = system: SK-MEL-2 melanoma
SK-MEL-28 melanoma = system: SK-MEL-28 melanoma
SK-MEL-5 melanoma = system: SK-MEL-5 melanoma
SK-OV-3 ovarian = system: SK-OV-3 ovarian
SN12C renal = system: SN12C renal
SNB-19 CNS = system: SNB-19 CNS
SNB-75 CNS = system: SNB-75 CNS
SR leukemia = system: SR leukemia
SW-620 colon = system: SW-620 colon
T-47D breast = system: T-47D breast
TK-10 renal = system: TK-10 renal
U251 CNS = system: U251 CNS
UACC-257 melanoma = system: UACC-257 melanoma
UACC-62 melanoma = system: UACC-62 melanoma
UO-31 renal = system: UO-31 renal

Compound: O=C(Cc1ccc(/C=C/C(=O)c2ncc[nH]2)cc1)Nc1ccc(C(F)(F)F)cc1
- GI50 (786-0 renal): 1.4 µM
- TGI (786-0 renal): 6.07 µM
- GI50 (A498 renal): 4.73 µM
- TGI (A498 renal): 10 µM
- GI50 (A549 NSCLC): 6.37 µM
- TGI (A549 NSCLC): 27.1 µM
- GI50 (ACHN renal): 6.33 µM
- TGI (ACHN renal): 17.8 µM
- GI50 (BT-549 breast): 2.11 µM
- TGI (BT-549 breast): 8.28 µM
- GI50 (CAKI-1 renal): 4.43 µM
- TGI (CAKI-1 renal): 9.47 µM
- GI50 (CCRF-CEM leukemia): 1.55 µM
- TGI (CCRF-CEM leukemia): > 33.3 µM
- GI50 (COLO 205 colon): 5.38 µM
- TGI (COLO 205 colon): 11.8 µM
- GI50 (DU-145 prostate): 2.13 µM
- TGI (DU-145 prostate): 6.3 µM
- GI50 (EKVX NSCLC): 5.57 µM
- TGI (EKVX NSCLC): 14.6 µM
- GI50 (HCC-2998 colon): 3.97 µM
- TGI (HCC-2998 colon): 8.61 µM
- GI50 (HCT-116 colon): 0.694 µM
- TGI (HCT-116 colon): 1.74 µM
- GI50 (HCT-15 colon): 1.04 µM
- TGI (HCT-15 colon): 4.79 µM
- GI50 (HL-60(TB) leukemia): 2.03 µM
- TGI (HL-60(TB) leukemia): 20 µM
- GI50 (HOP-62 NSCLC): 4.8 µM
- TGI (HOP-62 NSCLC): 12 µM
- GI50 (HOP-92 NSCLC): 4.89 µM
- TGI (HOP-92 NSCLC): 11.1 µM
- GI50 (HS 578T breast): 5.88 µM
- TGI (HS 578T breast): > 33.3 µM
- GI50 (HT29 colon): 1.09 µM
- TGI (HT29 colon): 4.47 µM
- GI50 (IGROV1 ovarian): 3.84 µM
- TGI (IGROV1 ovarian): 15.9 µM
- GI50 (K-562 leukemia): 1.24 µM
- TGI (K-562 leukemia): > 33.3 µM
- GI50 (KM12 colon): 1.11 µM
- TGI (KM12 colon): 4.27 µM
- GI50 (LOX IMVI melanoma): 0.469 µM
- TGI (LOX IMVI melanoma): 1.02 µM
- GI50 (M14 melanoma): 2.58 µM
- TGI (M14 melanoma): 9.25 µM
- GI50 (MALME-3M melanoma): 5.18 µM
- TGI (MALME-3M melanoma): 12.9 µM
- GI50 (MCF7 breast): 0.851 µM
- TGI (MCF7 breast): 4.31 µM
- GI50 (MDA-MB-231 breast): 2.79 µM
- TGI (MDA-MB-231 breast): 8.55 µM
- GI50 (MDA-MB-435): 2.87 µM
- TGI (MDA-MB-435): 11.6 µM
- GI50 (MOLT-4 leukemia): 2.29 µM
- TGI (MOLT-4 leukemia): 28.5 µM
- GI50 (NCI-H226 lung): 6.11 µM
- TGI (NCI-H226 lung): 13.1 µM
- GI50 (NCI-H23 lung): 3.42 µM
- TGI (NCI-H23 lung): 9.26 µM
- GI50 (NCI-H460 lung): 3.6 µM
- TGI (NCI-H460 lung): 10.7 µM
- GI50 (NCI-H522 lung): 4.87 µM
- TGI (NCI-H522 lung): 12.4 µM
- GI50 (NCI/ADR-RES ovarian): 8.96 µM
- TGI (NCI/ADR-RES ovarian): > 33.3 µM
- GI50 (OVCAR-3 ovarian): 1.09 µM
- TGI (OVCAR-3 ovarian): 3.35 µM
- GI50 (OVCAR-4 ovarian): 5.12 µM
- TGI (OVCAR-4 ovarian): 22.1 µM
- GI50 (OVCAR-5 ovarian): 4.89 µM
- TGI (OVCAR-5 ovarian): 10.2 µM
- GI50 (OVCAR-8 ovarian): 7.99 µM
- TGI (OVCAR-8 ovarian): > 33.3 µM
- GI50 (PC-3 prostate): 2.81 µM
- TGI (PC-3 prostate): 12.4 µM
- GI50 (RPMI-8226 leukemia): 0.78 µM
- TGI (RPMI-8226 leukemia): 1.83 µM
- GI50 (RXF 393 renal): 3.75 µM
- TGI (RXF 393 renal): 8.83 µM
- GI50 (SF-268 CNS): 3.05 µM
- TGI (SF-268 CNS): 9.53 µM
- GI50 (SF-295 CNS): 4.08 µM
- TGI (SF-295 CNS): 9.3 µM
- GI50 (SF-539 CNS): 4.52 µM
- TGI (SF-539 CNS): 9.25 µM
- GI50 (SK-MEL-2 melanoma): 7.09 µM
- TGI (SK-MEL-2 melanoma): 16.7 µM
- GI50 (SK-MEL-28 melanoma): 5.32 µM
- TGI (SK-MEL-28 melanoma): 11.1 µM
- GI50 (SK-MEL-5 melanoma): 5.55 µM
- TGI (SK-MEL-5 melanoma): 10.2 µM
- GI50 (SK-OV-3 ovarian): 7.66 µM
- TGI (SK-OV-3 ovarian): 26.3 µM
- GI50 (SN12C renal): 1.87 µM
- TGI (SN12C renal): 8.02 µM
- GI50 (SNB-19 CNS): 2.79 µM
- TGI (SNB-19 CNS): 7.75 µM
- GI50 (SNB-75 CNS): 3.97 µM
- TGI (SNB-75 CNS): 9.12 µM
- GI50 (SR leukemia): 0.843 µM
- TGI (SR leukemia): > 33.3 µM
- GI50 (SW-620 colon): 1.35 µM
- TGI (SW-620 colon): 5.17 µM
- GI50 (T-47D breast): 3.97 µM
- TGI (T-47D breast): 12.3 µM
- GI50 (TK-10 renal): 6.63 µM
- TGI (TK-10 renal): 13.8 µM
- GI50 (U251 CNS): 1.22 µM
- TGI (U251 CNS): 4.11 µM
- GI50 (UACC-257 melanoma): 7.2 µM
- TGI (UACC-257 melanoma): 16.1 µM
- GI50 (UACC-62 melanoma): 4.47 µM
- TGI (UACC-62 melanoma): 9.44 µM
- GI50 (UO-31 renal): 2.43 µM
- TGI (UO-31 renal): 6.74 µM
